Measured values: patent US12385900B2, “Method for evaluating cytotoxicity of gas” (DAIKIN INDUSTRIES, LTD., priority 2018, dated 2025)

Experiments:
[1] = test system: heart; settings: reported / known; cited from earlier work
[2] = test system: Human iPS cell-derived cardiomyocytes (iCell cardiomyocytes^2, CDI); test: Cytotoxicity evaluation test: number of beats of cardiomyocytes during gas flow onto the cell culture medium; assay type: cell-based
Protocol: Human iPS cell-derived cardiomyocytes (iCell cardiomyocytes^2, CDI) were seeded into a 96-well half-area plate at a density of 40,000 cells/well, followed by culture in an incubator for 7 to 10 days. Subsequently, a Ca indicator (EarlyTox Cardiotoxicity Kit, Molecular Devices) was added at 30 μL/well to the cardiomyocytes. Subsequently, chlorodifluoromethane (Example) or difluoromethane (Reference Example) was allowed to flow onto the surface of the cell culture medium in a closed vessel at a flow rate of 50 mL/min. During the flow, the cell culture medium was maintained at a pH of 7.4, a temperature of 37° C., and an air pressure in the incubator of 101.3 kPa. The number of beats of cardiomyocytes from the start of the flow to 10 minutes after the start of the flow was measured by a fluorescence measurement with a confocal quantitative image cytometer (CQ1, Yokogawa Electric Corporation).

Structure (SMILES)	effects on the heart [1]	increase in the number of beats ([2]; 10 minutes after the start of the flow) [%]	Average number of beats (beats/30 sec) ([2]; exposure time 0 min (start of flow), gas flow 50 mL/min onto medium surface, pH 7.4, 37° C., 101.3 kPa)	Average number of beats (beats/30 sec) ([2]; exposure time 10 min, gas flow 50 mL/min onto medium surface, pH 7.4, 37° C., 101.3 kPa)	change in the number of beats of cardiomyocytes [2]	Average number of beats (beats/30 sec) ([2]; human, 0 min, pH 7.4)	Average number of beats (beats/30 sec) ([2]; human, 10 min, pH 7.4)
FC(F)Cl [chlorodifluoromethane]	has effects on the heart	74	14.5	25.3	–	–	–
FCF [difluoromethane]	no significant effects on the heart	–	–	–	almost no change	16.1	16.5
